The numbers were not newly measured in paper PMC11206399, “In Vitro/In Vivo Correlation of Two Extended-Release Cilostazol Formulations” (Pharmaceuticals, 2024), which cites them from elsewhere.

Details of data set [1]: method as in PMID 4074422.
The subject of data set [2] is Caco-2 cell monolayer. Also noted: method as in PMID 14603510. The following applies: Caco-2 cell monolayer model.
On the set-up of data set [3]: method as in PMID 10702883. The following applies: humans, oral 100 mg Cilostazol tablet.
Data set [4] has as its system platelet aggregation. Also on record: method as in doi:10.1111/j.1527-3466.1993.tb00200.x.

Converted amounts (≈) assume the structure as drawn.

In the case of `O=C1CCc2cc(OCCCCc3nnnn3C3CCCCC3)ccc2N1` [Cilostazol], the water solubility in data set [1] is 3.34 µg/mL (≈ 9.04 µM). The permeability coefficient entry in data set [2] was “above 1 × 10^−6 cm/s”. Besides, in data set [3], the “increase of AUC of Cilostazol with high-fat breakfast compared with the fasted condition” value was 25% and the “increase of Cmax of Cilostazol with high-fat breakfast compared with the fasted condition” value is reported as 90%.

Turning to `O=c1ccc2cc(OCCCCc3nnnn3C3CCCCC3)ccc2[nH]1` [OPC-13015, 3,4-dehydrocilostazol], the “potency of inhibiting platelet aggregation compared with cilostazol” value in data set [4] is on record as 3 fold.

In the case of `O=C1CCc2cc(OCCCCc3nnnn3[C@H]3CC[C@H](O)CC3)ccc2N1` [OPC-13213, 4′-trans-hydroxy-cilostazol], the “fold less potent than Cilostazol (inhibiting platelet aggregation)” value in data set [4] is recorded as 3 fold.
